Assay results from patent US10995129B2 (Case Western Reserve University, priority 2011, dated 2021).

Experiments:
[1] = biological target: A isoform of the insulin receptor (IR-A) (Homo sapiens, UniProt P06213); assay: Affinity of the GluA8, TrpA13, ChaB24 analogue for receptor isoform A; assay type: binding
[2] = biological target: B isoform of the insulin receptor (IR-B) (Homo sapiens, UniProt P06213); assay: Affinity of the GluA8, TrpA13, ChaB24 analogue for receptor isoform B; assay type: binding
[3] = test system: Normal male Sprague-Dawley rats; assay: Hyperinsulinemic-euglycemic clamp; assay type: in vivo, rat
Experimental: A primed infusion of glucose was administered followed by a continuous dosage. […] Glucose appearance and disposal was determined by calculating the difference between glucose infused and glucose present in the plasma as determined by glucometer. Plasma levels of plasma nonesterified fatty acids (NEFA) are determined using a colorimeteric assay such as the assay kit available from Fujifilm Wako Diagnostics (Mountain View, Calif.). Phosphorylation relative to basal level was measured using Western blot analysis of samples harvested from liver, gastrocnemius and epididymal white adipose tissue (eWAT), and immunoblotted using anti-phosphotyrosine antibody (Cell Signaling Technologies, Inc., Danvers, Mass., Phospho-IGF-I Receptor β ([MUT]) Rabbit monoclonal antibody #3918). Similarly Akt phosphorylation was similarly tested using Cell Signaling Technology, Inc. (Danvers, Mass.) antibody No. 9271 as primary antibody and horse radish peroxidase (HRP)-linked Anti-rabbit IgG antibody No. 7074 (Cell Signaling Technology, Inc., Danvers, Mass.).

“CHA: insulin analogue with Glu A8, Trp A13 and cyclohexanylalanine B24; SEQ ID NOS: 50 and 51” was tested, and the “lower affinity for the A isoform of the insulin receptor” value [1] was “five”, the “lower affinity for the B isoform of the insulin receptor” value [2] was 13 fold and the “increase of insulin stimulated whole body glucose disposal (Rd)” value ([3]; FIG. 16B) was “to a similar degree”. The “insulin stimulated whole body glucose disposal (Rd)” value ([3]; FIG. 16B legend) was 21.1 ± 1.4 mg/kg/min, the “insulin receptor tyrosine phosphorylation (IRKpY) in liver, vs KP” value ([3]; Western blot, FIG. 16D) was “decrease” and the “IRKpY activation in gastrocnemius muscle, vs KP” value ([3]; Western blot, FIG. 16E) was “to a similar degree”. The “IRKpY activation in epididymal white adipose tissue (eWAT), vs KP” value ([3]; Western blot, FIG. 16F) was “to a similar degree”, the “GINF (glucose infusion)” value ([3]; during clamp) was 21.1 ± 1.4 mg/kg/min and the “clamped plasma glucose concentration” value ([3]; during clamp, KP 24, CHA 40 pmol/kg-min) was 111.1 ± 5.1 mg/dL. For the same substance, the “suppression of endogenous glucose production (EGP)” value ([3]; hyperinsulinemic conditions, p=0.001) was 28.2±16.7%, the “2-deoxyglucose uptake in eWAT” value ([3]; rat, in vivo) was 0.72±0.1 mg glucose·kg tissue^−1·min^−1 and the “2-deoxyglucose uptake in gastrocnemius” value ([3]; rat, in vivo) was 18.6±2.5 mg glucose·kg tissue^−1·min^−1.
